Data: publication PMC5037475, “The Dinoflagellate Toxin 20-Methyl Spirolide-G Potently Blocks Skeletal Muscle and Neuronal Nicotinic Acetylcholine Receptors” (Toxins, 2016)
“Also recorded” adds a separate entry of the source. Read-outs that look alike come from different tables or passages of the source.

Experiments:
[1] = target: Torpedo muscle-type α1_2β1γδ nAChR; details: previously reported; cited from earlier work
[2] = target: Torpedo muscle-type α1_2β1γδ nAChR; test: Competition binding with [125I]α-BTX on Torpedo membranes; set-up: species or system Torpedo marmorata; details: for Ki: [125I]α-BTX, equilibrium 4 h, mean ± SEM
[3] = test system: isolated mouse extensor digitorum longus (EDL) neuromuscular preparations, endowed with the α1_2βδε nAChR; test: Nerve-evoked isometric twitch tension on isolated mouse EDL nerve-muscle preparations
Protocol: The onset of the contraction block was rapid at high 20-meSPX-G concentration, with a complete block of the twitch response within 60 min at concentrations above 10 nM.
Figure 2 (A) Nerve-evoked isometric twitch responses on isolated mouse extensor digitorum longus (EDL) before and after the action of 10 nM 20-meSPX-G; and (B) concentration-response curve for the action of 20-meSPX-G on nerve-evoked isometric twitch response. Data points represent the normalized twitch response, relative to the respective controls. Each point is the mean ± SEM of 4 nerve muscle preparations at 60 min toxin exposure.
Isometric twitch tension measurements were performed on isolated mouse EDL nerve-muscle preparations after rapid removal from euthanized animals. The isolated EDL nerve-muscle preparation was mounted in a silicone-lined bath perfused with a Krebs-Ringer solution of the following composition (in mM): NaCl 140, KCl 5, CaCl2 2, MgCl2 1, glucose 11, and HEPES 5 (pH 7.4), continuously perfused with pure O2 throughout the experiment. For muscle tension measurements, one of the muscle tendons was securely anchored onto the silicone-coated bath. The other tendon was attached to an isometric force displacement transducer (FT03, Grass Instruments, West Warwick, RI, USA) via an adjustable stainless-steel hook. Muscle twitches were induced either by motor nerve stimulation, or by direct electrical muscle stimulation with supramaximal 0.15 ms duration current pulses delivered by a stimulator (S-44 Grass Instruments), through an electrode assembly placed along the muscle length. The resting tension was monitored and kept constant for each tested preparation through a mobile micrometer stage. Signals from the force transducer were collected, and digitized with a Digidata-1322A A/D interface board (Axon Instruments, Union City, CA, USA), as previously reported.

[4] = target: T1, human α3β2 nAChR (Homo sapiens, UniProt P17787+P32297); test: Competition binding with [3H]epibatidine on HEK-293 cells expressing human α3β2 nAChR; details: 4 h, mean ± SEM
T1 construct: expressed in transfected cells; host or cells: HEK-293

[5] = test system: Torpedo muscle-type α1_2β1γδ nAChR; test: Voltage-clamp recording of ACh-evoked currents in Xenopus oocytes microtransplanted with Torpedo nAChR; assay type: cell-based, Torpedo marmorata
Protocol: The fact that the amplitude of the ACh-evoked current was usually ≥1 µA (n = 6) was indicative of a good incorporation of the Torpedo muscle-type receptor into the oocyte membrane.
Torpedo marmorata fish were anaesthetized with 0.03% tricaine (Sigma-Aldrich, Saint Quentin Fallavier, France) in seawater, before surgical removal of electric organs. From sliced Torpedo electric organs, purified membranes enriched in the α1_2β1γδ nAChR were prepared at 4 °C in 5 mM glycine, using procedures described previously. Aliquots of the purified membranes were stored at –80 °C until use. Microtransplantation of Torpedo nAChR [39] consisted in a single microinjection of a membrane suspension (50 nL at 3.5 mg·mL^−1 protein) into the oocyte cytoplasm using a Nanoliter 2000 Micro4 Controller mounted on a microscope (World Precision Instruments, Inc., Hertfordshire, UK), as previously described.
Currents evoked by ACh were recorded with a two-microelectrode voltage-clamp amplifier (OC-725B, Warner Instrument Corp., Hamden, CT, USA) at −60 mV holding potential. Micro-electrodes had 0.5–1.5 MΩ tip resistances. A pCLAMP-9/Digidata-1322A system (Molecular Devices, Union City, CA, USA) was used for data recording. […]

[6] = test system: mouse neuromuscular system; test: In vivo compound muscle action potential (CMAP) recording after local i.m. injection in anesthetized mice
From the text: Figure 3 Effects of i.m. local injections of 20-meSPX-G in vivo on the mouse neuromuscular system. (A) Compound muscle action potentials (CMAPs) recorded from the tail muscle in response to caudal motor nerve stimulation (increasing intensities, scheme), before and at various times after injection of the cyclic imine toxin (35 pg/mouse); (B) time-course of the effects of 20-meSPX-G injections (1.75, 35 and 350.5 pg/mouse) on the CMAP maximal amplitude. Arrows indicate the time of injections; and (C) dose-response curve of the effects of 20-meSPX-G injections on the maximal CMAP amplitude. Each value represents the mean ± SEM of data obtained from 4–6 mice, and is expressed relatively to that obtained before injections. The sigmoid curve was obtained by nonlinear regression analysis through data points (R^2 ≥ 0.99). The 20-meSPX-G dose required to block 50% of the maximal CMAP amplitude (dashed lines) was 47 pg/mouse.
In vivo recordings from the neuromuscular system were done in mice anesthetized by isoflurane inhalation, with a minimally-invasive electrophysiological method using Qtrac software (Institute of Neurology, Queen Square, London, UK, 2013), as previously described. In brief, electrical stimulations were delivered at a constant frequency of 1.25 Hz to the caudal motor nerve (at the base of the tail) with surface electrodes, and the compound muscle action potential (CMAP) was recorded using needle-electrodes inserted into the tail muscle. 20-me-SPX-G, diluted in phosphate buffer saline containing <1% methanol, was injected intramuscularly (i.m.), between stimulation and ground electrodes, in a single bolus of 1.25−5 µL with a micro-syringe (10 μL volume). Continuous on-line recordings were started around six minutes before injections to determine the toxin and/or solvent effects, as a function of time, on selected excitability parameters, such as the CMAP amplitude and excitability threshold.

[7] = target: T2, human α7 nAChR (Homo sapiens, UniProt P36544); test: Voltage-clamp recording of ACh-evoked currents in Xenopus oocytes expressing human α7 nAChR; assay type: cell-based; details: ACh 350 μM (EC50), 3 s, −60 mV; read-out: IC50, inhibition of ACh-evoked current
T2 construct: expressed in transfected cells; host or cells: Xenopus laevis oocytes
Protocol: Functional analysis of the action of 20-meSPX-G was also performed using voltage-clamp recordings in Xenopus oocytes previously transfected with human α7 or α4β2-encoding cDNAs.
Oocytes were obtained under anesthesia (ethyl-3-amino benzoate methanesulfonate salt solution (1 g·L^−1, Sigma-Aldrich, Saint Quentin Fallavier, France) from mature female Xenopus laevis frogs. Oocytes were recovered and placed in a medium containing no added calcium and containing (in mM): NaCl, 88; KCl, 2.5; MgCl2, 1; and HEPES, 5 (pH 7.6). After extensive washing with this solution, oocytes were transferred to a Barth’s solution containing (in mM): NaCl, 88; KCl, 1; MgSO4, 0.33; CaCl2, 0.41; MgSO4, 0.82; Ca(NO3)2, 0.33; NaHCO3, 2.4; and HEPES, 10 (pH = 7.2) supplemented with kanamycine 0.1 mg·mL^−1. Oocytes (stage V–VI) were defolliculated (manually) and microinjected with 50 nL of human α7 mRNA (0.1 μg·μL^−1), or with a 50 nL mixture of plasmids carrying the cDNA of α4 and β2 (0.3 μg·μL^−1, each). For micro-injection a Nanoliter 2000 Micro4 Controller (World Precision Instruments, Inc., Hertfordshire, UK) was used. […]
Currents evoked by ACh were recorded with a two-microelectrode voltage-clamp amplifier (OC-725B, Warner Instrument Corp., Hamden, CT, USA) at −60 mV holding potential. […]

[8] = target: T3, chick chimeric α7-5HT3 nAChR (UniProt P22770+P23979, M226I/T225I); test: Competition binding with [125I]α-BTX on HEK-293 cells expressing chimeric α7-5HT3 nAChR
T3 construct: expressed in transfected cells; host or cells: HEK-293

[9] = target: T4, human α4β2 nAChR (Homo sapiens, UniProt P17787+P43681); test: Voltage-clamp recording of ACh-evoked currents in Xenopus oocytes expressing human α4β2 nAChR; assay type: cell-based; details: ACh 150 μM (EC50), −60 mV; read-out: IC50, inhibition of ACh-evoked current
From the text: Oocytes were obtained under anesthesia (ethyl-3-amino benzoate methanesulfonate salt solution (1 g·L^−1, Sigma-Aldrich, Saint Quentin Fallavier, France) from mature female Xenopus laevis frogs. Oocytes were recovered and placed in a medium containing no added calcium and containing (in mM): NaCl, 88; KCl, 2.5; MgCl2, 1; and HEPES, 5 (pH 7.6). After extensive washing with this solution, oocytes were transferred to a Barth’s solution containing (in mM): NaCl, 88; KCl, 1; MgSO4, 0.33; CaCl2, 0.41; MgSO4, 0.82; Ca(NO3)2, 0.33; NaHCO3, 2.4; and HEPES, 10 (pH = 7.2) supplemented with kanamycine 0.1 mg·mL^−1. Oocytes (stage V–VI) were defolliculated (manually) and microinjected with 50 nL of human α7 mRNA (0.1 μg·μL^−1), or with a 50 nL mixture of plasmids carrying the cDNA of α4 and β2 (0.3 μg·μL^−1, each). For micro-injection a Nanoliter 2000 Micro4 Controller (World Precision Instruments, Inc., Hertfordshire, UK) was used. Oocytes that were microinjected were incubated at 18 °C in Barth’s solution, and electrophysiological recordings were performed 3−4 days after microinjection.
Currents evoked by ACh were recorded with a two-microelectrode voltage-clamp amplifier (OC-725B, Warner Instrument Corp., Hamden, CT, USA) at −60 mV holding potential. Micro-electrodes had 0.5–1.5 MΩ tip resistances. […]

[10] = target: T4, human α4β2 nAChR; test: Competition binding with [3H]epibatidine on HEK-293 cells expressing human α4β2 nAChR; set-up: expressed in transfected cells; host or cells: HEK-293
[11] = test system: mouse; details: cited from earlier work; for LD50: mouse
[12] = test system: mouse neuromuscular system; details: local injection, mice; cited from earlier work
[13] = acyclic aminoketone spirolides; cited from earlier work
[14] = target: Torpedo muscle-type α1_(2)β1γδ nicotinic acetylcholine receptor (Torpedo marmorata (endogenous in electric organ)) (UniProt P02711); test: radioligand binding
[15] = i.m. injection, anesthetized mice, corresponding to 47 pg/mouse

C=C1CCCC2=NC[C@H](C)[C@@H](C)C[C@@]23CCC(C(=O)O)=C[C@@H]3[C@@H]2O[C@]3(C[C@H]4CCC[C@@]5(CC[C@@]6(O[C@@H](CC[C@@]6(C)O)C1)O5)O4)C[C@@H](C)[C@@H](O)[C@H]2O3 [pinnatoxin A]
Ki [1]: 2.8 nM

20-methyl spirolide G [20-meSPX-G]
Ki [2]: 0.028 ± 0.005 nM
fold lower affinity than α-toxin from Naja nigricollis ([2]; from Ki values of Table 1): about 2.5 fold
reversal of neuromuscular transmission block by wash-out ([3]; continuous wash-out for 30 min with spirolide-free medium): not completely reversed
IC50 ([3]; isolated mouse EDL, 60 min toxin exposure, read-out: IC50, block of nerve-evoked muscle contractions): 4.8 nM
concentration giving complete block of the twitch response within 60 min ([3]; nerve-evoked isometric twitch, isolated mouse EDL): above 10 nM
effect on contractions elicited by direct electrical muscle stimulation ([3]; when nerve-evoked twitch was blocked (10 nM)): lack of a direct effect; also recorded: no action
Ki [4]: 0.04 ± 0.001 nM
agonist action ([5]; 3.1 nM toxin applied alone, −60 mV): no agonist action
IC50 ([5]; ACh 25 µM (EC50), −60 mV holding potential, read-out: IC50, inhibition of ACh-evoked current): 0.36 nM
onset of the effect on CMAP amplitude ([6]; 1.75 pg/mouse i.m.): 15.8 ± 1.9 min
block of CMAP amplitude ([6]; 1.75 pg/mouse i.m., mean): 9%
block of CMAP amplitude ([6]; 350.5 pg/mouse i.m.): 91%
onset of the effect on CMAP amplitude ([6]; 350.5 pg/mouse i.m.): 7.7 ± 2.1 min
CMAP maximal amplitude after spontaneous recovery, relative to controls ([6]; 35–87.6 pg/mouse i.m.): 78.5%
time for CMAP maximal amplitude to return to 78.5% of controls ([6]; 35–87.6 pg/mouse i.m.): ≤ 53.3 ± 19.6 min
ED50, dose required to block 50% of the maximal CMAP amplitude ([6]; i.m. injection, anesthetized mice): 47 pg/mouse
ED50 (also called IC50), block of maximal CMAP amplitude [6, 15]: 0.0017 µg/kg
ED50, block of maximal CMAP amplitude [6, 15]: 2.4 pmol/kg
IC50 [7]: 0.48 nM
Ki ([8]; [125I]α-BTX, HEK-293 cells, mean ± SEM): 0.11 ± 0.08 nM
times more active than MLA ([8]; α7 / chimeric α7-5HT3, from Ki values): about 7.5 times
IC50 [9]: 2.1 nM
fold lower affinity in human α4β2 than in human α3β2 nAChR ([10]; [3H]epibatidine competition binding): 90 fold
Ki ([10]; [3H]epibatidine, HEK-293 cells, 4 h, mean ± SEM): 3.6 ± 0.07 nM
lethality ([11]; mice, i.p. administration of 0.063 mg·kg^−1): absence of lethality
LD50 ([11]; by feeding): 630 µg/kg
LD50 ([11]; intraperitoneal (i.p.) injection): 8 µg/kg
LD50 ([11]; orally by gavage): 160 µg/kg

C=C1CCCC2=NC[C@H](C)[C@@H](C)C[C@@]23CCC([C@@H]2C=C(C)C(=O)O2)=C(C)[C@@H]3/C=C(\C)[C@@H](O)C[C@@H]2CC[C@@]3(CC[C@@]4(O[C@@H](CC[C@@]4(C)O)C1)O3)O2 [13-desmethyl spirolide C]
Ki [1]: 0.08 nM
IC50, reduction of CMAP amplitude in vivo [12]: 6 ng/kg

spirolide F
toxicity [13]: no toxicity

COc1cc2c3cc1Oc1cc(ccc1O)C[C@@H]1c4c(cc(OC)c(O)c4Oc4ccc(cc4)C[C@@H]3N(C)CC2)CC[N+]1(C)C [d-tubocurarine, reference compound]
fold higher concentration needed for a similar degree of neuromuscular blockade (IC50) compared with 20-meSPX-G ([3]; comparison with literature value): 75 fold

α-toxin from Naja nigricollis (from UniProt P01426 1-61) (natural protein)
Ki [14]: 0.011 nM

C=C(CCCC(=O)C1(CCC(C)CN)CCC(C2C=C(C)C(=O)O2)=C(C)C1/C=C(\C)C(O)CC)CC1CCC(C)(O)C2(CCC3(CC(C)CO3)O2)O1 (stereo not drawn) [spirolide E]
toxicity [13]: no toxicity

B1: α-Toxin (snake): α-toxin from Naja nigricollis, a short-chain curaremimetic toxin (61 residues and four disulfides), synthesized (protein)
chain: LECHNQQSSQPPTTKTCPGETNCYKKVWRDHRGTIIERGCGCPTVKPGIKLNCCTTDKCNN
modifications: disulfide (positions not given here)
notes: α-toxin from Naja nigricollis, a short-chain curaremimetic toxin (61 residues and four disulfides), synthesized
Ki [2]: 0.011 ± 0.002 nM
